The results in this text go back to BindingDB's records for doi:10.1021/jm00111a037 (University of Tokushima, 1991).

Molecules are shown by their SMILES.

The nature of the first assay: Inhibition of arachidonate 5-lipoxygenase purified from porcine leukocytes.
Turning to `CCCCCCOc1cc(OC)c(OC)c2oc(-c3ccc(O)c(O)c3)c(O)c(=O)c12`, it took 770 nM to reach half-maximal inhibition (IC50).

`CCCCCCOc1c(OC)c(OC)cc2oc(-c3ccc(O)c(O)c3)c(O)c(=O)c12` registered a half-inhibitory concentration (IC50) of 1350 nM. The same measure, in the same setting: for `CCCCCCCCCCc1c(-c2ccc(O)c(O)c2)oc2c(OC)c(OC)cc(OC)c2c1=O` the value was 86 nM; for `COc1cc2oc(-c3ccc(O)c(O)c3)c(C)c(=O)c2c(O)c1OC`, 480 nM. In turn, `CCCCCCOc1c(-c2ccc(O)c(O)c2)oc2c(OC)c(OC)cc(OC)c2c1=O` had an IC50 of 88 nM. Against the preceding compound, the IC50 is about 5.5-fold lower.

`CCCCCCCCCCCCCCCCc1c(-c2ccc(O)c(O)c2)oc2c(OC)c(OC)cc(O)c2c1=O` yielded a half-maximal inhibitory concentration (IC50) of 1500 nM. This IC50 lies about 17-fold higher than the previous one. With `CCCCCCCCCCCCCCCCc1c(-c2ccc(O)c(O)c2)oc2c(OC)c(OC)cc(OC)c2c1=O`, inhibition was half-maximal at 500 nM (IC50). Consider `CCCCCCCCc1c(-c2ccc(O)c(O)c2)oc2c(OC)c(OC)cc(OC)c2c1=O`, for which the IC50 was determined as 62 nM. In turn, `CCCCCCc1c(-c2ccc(O)c(O)c2)oc2cc(OC)c(OC)c(=O)c-2c1O` yielded an IC50 of 110 nM. In turn, `CCCCCCCCCCCCCCc1c(-c2ccc(O)c(O)c2)oc2cc(OC)c(OC)c(=O)c-2c1O` gave an IC50 of 870 nM. As for `CCCCCCCCCCCCCCCCc1c(-c2ccc(O)c(O)c2)oc2cc(OC)c(OC)c(=O)c-2c1O`, it took 1250 nM to reach half-maximal inhibition (IC50).

`CCCCCCCCCCCCCCc1c(-c2ccc(O)c(O)c2)oc2c(OC)c(OC)cc(OC)c2c1=O`: 115 nM corresponded to half-maximal inhibition (IC50).

For the compound `CCCCCCc1c(-c2ccc(O)c(O)c2)oc2c(OC)c(OC)cc(OC)c2c1=O`, the IC50 is 58 nM. Compared with the last compound, the IC50 is about 2-fold lower.

In turn, `CCCCCCCCCCCCc1c(-c2ccc(O)c(O)c2)oc2c(OC)c(OC)cc(OC)c2c1=O` displayed an IC50 of 105 nM. The compound `COc1cc(O)c2c(=O)c(C)c(-c3ccc(O)c(O)c3)oc2c1OC` had a half-maximal inhibitory concentration (IC50) of 300 nM.

`CCCCc1c(-c2ccc(O)c(O)c2)oc2cc(OC)c(OC)c(=O)c-2c1O` displayed a concentration for half-maximal inhibition (IC50) of 265 nM. This IC50 and that of the compound before are within 1.5-fold of each other. Take `CCCCCCCCCCCCCCCCc1c(-c2ccc(O)c(O)c2)oc2cc(OC)c(OC)c(OC)c2c1=O`: the IC50 was 950 nM.

Compound `CCCCc1c(-c2ccc(O)c(O)c2)oc2c(OC)c(OC)cc(OC)c2c1=O` came in with a concentration for half-maximal inhibition (IC50) of 100 nM.

For `CCCCCCOc1c(-c2ccc(O)c(O)c2)oc2cc(OC)c(OC)c(OC)c2c1=O`, half-maximal inhibition (IC50) required 126 nM. `CCCCCCOc1c(OC)c(OC)cc2oc(-c3ccc(O)c(O)c3)c(OC)c(=O)c12` returned an IC50 of 280 nM. Against the preceding compound, the IC50 is about 2.2-fold higher. `CCCCCCCCCCc1c(-c2ccc(O)c(O)c2)oc2c(OC)c(OC)cc(O)c2c1=O` gave an IC50 of 135 nM. This IC50 is about 2.1-fold lower than that of the compound before.

A short description of the next assay: The compound was tested for the inhibition of Arachidonate 5-lipoxygenase purified from porcine leukocytes.
`CCCCCCCCc1c(-c2ccc(O)c(O)c2)oc2cc(OC)c(OC)c(OC)c2c1=O` registered a 50% inhibitory concentration (IC50) of 250 nM. Compound `CCCCCCCCCCCCc1c(-c2ccc(O)c(O)c2)oc2cc(OC)c(OC)c(=O)c-2c1O` gave an IC50 of 210 nM. Regarding `CCCCCCCCCCCCCCc1c(-c2ccc(O)c(O)c2)oc2cc(OC)c(OC)c(OC)c2c1=O`, the IC50 came to 240 nM. On to `CCCCCCCCCCCCCCc1c(-c2ccc(O)c(O)c2)oc2c(OC)c(OC)cc(O)c2c1=O`, for which the IC50 was found to be 500 nM. This IC50 is about 2.1-fold higher than that of the compound before.

In the case of `CCCCCCCCCCCCc1c(-c2ccc(O)c(O)c2)oc2c(OC)c(OC)cc(O)c2c1=O`, half-maximal inhibition (IC50) was put at 340 nM.

Take `CCCCCCCCCCCCc1c(-c2ccc(O)c(O)c2)oc2cc(OC)c(OC)c(OC)c2c1=O`: the concentration for half-maximal inhibition (IC50) is 175 nM.

Compound `CCCCCCCCCCc1c(-c2ccc(O)c(O)c2)oc2cc(OC)c(OC)c(OC)c2c1=O` displayed an IC50 of 190 nM.

In general, IC50 refers to the point on the concentration scale where inhibition reaches its midpoint.
